Literature values as cited in US12624058B2, “Promoiety strategy to enhance drug activity” (UNIVERSITY OF SOUTHERN CALIFORNIA, priority 2020, dated 2026).

Experiments:
[1] = in vivo
multiple Ad types = conditions: cell culture; read-out: EC50, replication of multiple Ad types
Ad5 = conditions: immunosuppressed Syrian hamster model
[2] = in vivo; remark: listed apart in the source

For CCCCCCCCCCCCCCCCOCCCOP(=O)(O)CO[C@H](CO)Cn1ccc(N)nc1=O [BCV], the GI side effect (Ad viremia; phase II clinical trial) is given as “symptomatic GI irritation was observed”, the “reduction of Ad viremia” value (Ad viremia; preemptive treatment, pediatric and adult patients) is given as “reduced Ad viremia in some of these patients however, the result was not statistically significant” and the nephrotoxicity [1] is given as “little or no nephrotoxicity”. For the same compound, the EC50 (multiple Ad types) was about 20 nM and the “efficacy against Ad5 replication and pathogenesis” value (Ad5) was “effective”.

In the case of Nc1ccn(C[C@@H](CO)OCP(=O)(O)O)c(=O)n1 [CDV, (S)-1-(3-hydroxy-2-phosphonomethoxypropyl)cytosine], the nephrotoxicity [1] is listed as “causes nephrotoxicity”, the “efficacy against Ad5 replication and pathogenesis” value (Ad5) is listed as “effective” and the oral bioavailability [2] is listed as under 5%.
